Reference: publication PMC10840383, “Clinical features, functional consequences, and rescue pharmacology of missense GRID1 and GRID2 human variants” (Human Molecular Genetics, 2023)
Positions count from the first letter of the chain named.

Assays:
Assay type in all cases: cell-based
GluD1-T649I = molecular target: T1, GluD1-T649I (Homo sapiens, UniProt Q9ULK0, T649I); experiment: TEVC of constitutive current, Xenopus oocytes expressing GluD1-T649I; details: positive = increase, negative = decrease of activity
T1 construct: expressed in transfected cells; host or cells: Xenopus laevis oocytes injected with cRNA
T1 sequence (Q9ULK0 21-1009 T649I): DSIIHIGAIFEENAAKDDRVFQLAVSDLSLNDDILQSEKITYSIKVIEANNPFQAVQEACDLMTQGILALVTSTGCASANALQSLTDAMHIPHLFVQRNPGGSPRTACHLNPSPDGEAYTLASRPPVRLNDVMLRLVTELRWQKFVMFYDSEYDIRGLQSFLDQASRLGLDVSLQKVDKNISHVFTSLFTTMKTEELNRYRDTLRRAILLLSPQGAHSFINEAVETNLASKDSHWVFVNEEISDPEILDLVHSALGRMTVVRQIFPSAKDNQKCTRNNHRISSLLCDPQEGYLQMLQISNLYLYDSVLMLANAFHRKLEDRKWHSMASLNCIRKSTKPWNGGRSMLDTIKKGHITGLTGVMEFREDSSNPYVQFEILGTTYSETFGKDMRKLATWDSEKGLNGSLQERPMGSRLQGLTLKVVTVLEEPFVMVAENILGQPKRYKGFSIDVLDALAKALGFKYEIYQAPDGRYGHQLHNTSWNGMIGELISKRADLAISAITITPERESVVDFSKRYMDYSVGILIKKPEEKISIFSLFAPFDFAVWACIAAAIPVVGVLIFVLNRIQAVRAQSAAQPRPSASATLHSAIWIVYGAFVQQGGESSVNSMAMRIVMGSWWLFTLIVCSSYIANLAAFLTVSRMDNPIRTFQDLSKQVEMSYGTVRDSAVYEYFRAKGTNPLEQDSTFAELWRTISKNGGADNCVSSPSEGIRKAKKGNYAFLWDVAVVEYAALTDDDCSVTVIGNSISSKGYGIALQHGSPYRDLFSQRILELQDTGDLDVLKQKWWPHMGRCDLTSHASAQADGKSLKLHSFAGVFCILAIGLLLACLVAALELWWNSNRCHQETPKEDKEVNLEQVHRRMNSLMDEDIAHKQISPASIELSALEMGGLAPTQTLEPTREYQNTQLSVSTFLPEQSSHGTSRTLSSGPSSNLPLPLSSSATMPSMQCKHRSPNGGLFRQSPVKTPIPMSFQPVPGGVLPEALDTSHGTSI

GluD1-S647F = molecular target: T2, GluD1-S647F (Homo sapiens, UniProt Q9ULK0, S647F); experiment: TEVC of constitutive current, Xenopus oocytes expressing GluD1-S647F; details: positive = increase, negative = decrease of activity
T2 construct: expressed in transfected cells; host or cells: Xenopus laevis oocytes injected with cRNA
T2 sequence (Q9ULK0 21-1009 S647F): T1 sequence (Q9ULK0 21-1009 T649I) with S627F, I629T

GluD1-R341Q = molecular target: T3, GluD1-R341Q (Homo sapiens, UniProt Q9ULK0, R341Q); experiment: TEVC of constitutive current, Xenopus oocytes expressing GluD1-R341Q
T3 construct: expressed in transfected cells; host or cells: Xenopus laevis oocytes injected with cRNA
T3 sequence (Q9ULK0 21-1009 R341Q): T1 sequence (Q9ULK0 21-1009 T649I) with R321Q, I629T

SMILES	D-Serine effect (Baseline −10 mM D-Serine) (GluD1-T649I; 10 mM D-serine)	D-Serine effect (Baseline −10 mM D-Serine) (GluD1-S647F; 10 mM D-serine)	Effect on current, in words (GluD1-R341Q)	D-Serine effect (Baseline −10 mM D-Serine) (GluD1-R341Q; 10 mM D-serine, positive = increase, negative = decrease of activity)	Pentamidine effect (Baseline −100 μM Pentamidine) (GluD1-T649I; 100 μM pentamidine)	Pentamidine effect (Baseline −100 μM Pentamidine) (GluD1-S647F; 100 μM pentamidine)	Pentamidine effect (Baseline −100 μM Pentamidine) (GluD1-R341Q; 100 μM pentamidine, positive = increase, negative = decrease of activity)
N[C@H](CO)C(=O)O [D-serine]	8.9 ± 1.2 (9) nA	14 ± 3.8 (10) nA	insensitive	7.2 ± 1.8 (6) nA	–	–	–
N=C(N)c1ccc(OCCCCCOc2ccc(C(=N)N)cc2)cc1 [Pentamidine, pentamidine]	–	–	–	–	−45 ± 9.5 (9) nA	−47 ± 11 (10) nA	64 ± 15 (6) nA
